This note sets out measurements from US20210171576A1, “METHODS FOR TREATING CANCER WITH ACYLDEPSIPEPTIDE ANALOGS” (priority 2018, published 2021).

Where a SMILES comes first, the peptide text is derived from it. Bridges are numbered along the chain shown (N, C = ends). [ ]: non-standard residue; d: D form. The star is where a group is joined. Octatrienoyl(2E,4E,6E) = C/C=C/C=C/C=C/C(=O)*; Phe(3,5-F2) = N[C@@H](Cc1cc(F)cc(F)c1)C(=O)O; Pip(4S-Me) = C[C@H]1CCN[C@H](C(=O)O)C1; 2Nal = N[C@@H](Cc1ccc2ccccc2c1)C(=O)O; Pro(4R-Me) = C[C@H]1CN[C@H](C(=O)O)C1; Tiq1c(1S) = O=C(O)[C@H]1NCCc2ccccc21; Bta = N[C@@H](Cc1csc2ccccc12)C(=O)O; Heptenoyl(2E) = CCCC/C=C/C(=O)*; Cha = N[C@@H](CC1CCCCC1)C(=O)O; aThr = C[C@H](O)[C@H](N)C(=O)O; Pip = O=C(O)[C@@H]1CCCCN1; X2 = O=C(/C=C/CC1CCCCC1)*; NMeA = CN[C@@H](C)C(=O)O; X11 = O=C(/C=C/C=C/CO)*; Abu = CC[C@H](N)C(=O)O; Cbz = O=C(OCc1ccccc1)*; Dap = NC[C@H](N)C(=O)O; Boc = CC(C)(C)OC(=O)*; X6 = CCCC/C=C\C(=O)*; X5 = CCCCCC#CC(=O)*; X10 = CCCC#CC(=O)*

For the experiment, the target named is T1, human mitochondrial CIpP (HsCIpP) (Homo sapiens, UniProt Q16740).
T1 construct: made in house; host or cells: E. coli SG1146 (BL21(DE3) ΔclpP::cat)
T1 sequence (Q16740 57-277): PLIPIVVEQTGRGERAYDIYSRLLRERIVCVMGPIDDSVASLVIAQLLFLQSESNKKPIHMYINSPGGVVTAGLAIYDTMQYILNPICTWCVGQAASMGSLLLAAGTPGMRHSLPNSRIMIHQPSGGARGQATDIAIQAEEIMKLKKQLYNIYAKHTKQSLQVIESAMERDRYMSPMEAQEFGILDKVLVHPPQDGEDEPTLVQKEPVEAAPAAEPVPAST
In words: Screen of ADEP analogs against HsCIpP: relative degradation (RD) index, casein-FITC degradation relative to E. coli CIpAP. It is filed as biochemical. More on the design: key: casein-FITC degradation by HsClpP relative to EcClpAP. The settings on record: for Hs RD1: RD value at 1 μM of the ADEP analog; for Hs RD5: RD value at 5 μM of the ADEP analog; for Hs RD25: RD value at 25 μM of the ADEP analog, measure of ability to activate HsCIpP. An excerpt: Structural analogs of acyldepsipeptide (ADEP) (Goodreid et al., 2016) that were previously developed as potential antibiotics against bacterial CIpP were screened and assessed for their ability to activate and dysregulate the protease activity of HsCIpP, by measuring their relative degradation (RD) index. Note that ADEP-28 was also previously reported by Carney et al. (2014). Details of the experimental protocol have been described in Leung et al., 2011. The RD index is defined as follows: […]
Δφ is the change in fluorescence after 6 hr of starting the reaction measured using 485 nm excitation and 535 nm emission, which primarily detects the signal from casein-FITC. E. coli CIpAP was used as a benchmark for maximum CIpP proteolytic activity. The CIpP in the numerator can be from any other organism. RD25 measurements refer to the measurement in the presence of 25 μM compound. All ADEP analogs were first screened at 25 μM, and their RD25 scores were calculated using the above formula and method as described in Leung et al., 2011 (FIG. 1A). Those that achieved RD25≥0.87 were screened a second time at 5 μM, followed by calculation of their RD5 scores. The top analogs with RD5≥0.74 were screened a third time at 1 μM, followed by calculation of their RD1 scores (FIG. 1B).
To identify ADEP analogs that allow HsCIpP to degrade folded proteins independent of HsCIpX+ATP (i.e., that activate or dysregulate HsCIpP), the inventors employed the in vitro screening method that was used for identifying small molecule activators of Escherichia coli CIpP (EcCIpP) (Leung et al., 2011). In this approach, the ability of HsCIpP to degrade FITC-labeled casein (casein-FITC) was measured and compared to the ability of EcCIpAP to degrade casein-FITC. This is quantitatively expressed as relative degradation (RD) index (Leung et al., 2011).

For `CCCC/C=C/C(=O)N[C@@H](Cc1ccccc1)C(=O)N[C@H]1COC(=O)[C@@H]2CCCN2C(=O)[C@H](C)NC(=O)[C@H](C)N(C)C(=O)[C@@H]2CCCN2C1=O` [ADEP-01] ({Heptenoyl(2E)}-FSP[NMeA]AP; ester 2-C), the “Hs RD1” value turned out to be 0.22, the “Hs RD5” value is 0.70 and the “Hs RD25” value is recorded as 0.96.

As for `C[C@@H]1NC(=O)[C@H](C)N(C)C(=O)[C@@H]2CCCN2C(=O)[C@@H](NC(=O)[C@@H](N)Cc2ccccc2)COC(=O)[C@@H]2CCCN2C1=O` [ADEP-40] (H-FSP[NMeA]AP; ester 2-C), the “Hs RD25” value worked out at 0.00.

In the case of `C[C@@H]1C[C@H]2C(=O)OC[C@H](NC(=O)[C@H](Cc3ccccc3)NC(=O)/C=C/C=C/CO)C(=O)N3CCC[C@H]3C(=O)N(C)[C@@H](C)C(=O)N[C@@H](C)C(=O)N2C1` [ADEP-36] (X11-FSP[NMeA]A[Pro(4R-Me)]; ester 2-C), the “Hs RD25” value was 0.00.

On to `CCCC/C=C/C(=O)N[C@@H](Cc1cc(F)cc(F)c1)C(=O)N[C@H]1COC(=O)[C@@H]2C[C@@H](C)CN2C(=O)[C@H](CC)NC(=O)[C@@H]2CCCCN2C(=O)[C@@H]2CCCN2C1=O` [ADEP-25] ({Heptenoyl(2E)}-[Phe(3,5-F2)]SP[Pip][Abu][Pro(4R-Me)]; ester 2-C), for which the “Hs RD1” value was 0.61, the “Hs RD5” value turned out to be 0.92 and the “Hs RD25” value came out at 0.97.

On to `CCCC/C=C\C(=O)N[C@@H](Cc1ccccc1)C(=O)N[C@H]1COC(=O)[C@@H]2CCCN2C(=O)[C@H](C)NC(=O)[C@H](C)N(C)C(=O)[C@@H]2CCCN2C1=O` [ADEP-19] (X6-FSP[NMeA]AP; ester 2-C), for which the “Hs RD25” value is recorded as 0.34.

In the case of `CCCC/C=C/C(=O)N[C@@H](Cc1csc2ccccc12)C(=O)N[C@H]1COC(=O)[C@@H]2C[C@@H](C)CN2C(=O)[C@H](C)NC(=O)[C@@H]2CCCCN2C(=O)[C@@H]2CCCN2C1=O` [ADEP-42] ({Heptenoyl(2E)}-[Bta]SP[Pip]A[Pro(4R-Me)]; ester 2-C), the “Hs RD5” value was determined as 0.49 and the “Hs RD25” value is listed as 0.87.

Regarding `C[C@@H]1C[C@H]2C(=O)OC[C@H](NC(=O)[C@H](Cc3ccccc3)NC(=O)OCc3ccccc3)C(=O)N3CCC[C@H]3C(=O)N(C)[C@@H](C)C(=O)N[C@@H](C)C(=O)N2C1` [ADEP-16] (Cbz-FSP[NMeA]A[Pro(4R-Me)]; ester 2-C), the “Hs RD25” value is given as 0.06.

In the case of `CCCC/C=C/C(=O)N[C@@H](Cc1cc(F)cc(F)c1)C(=O)N[C@@H]1C(=O)N2CCC[C@H]2C(=O)N2CC[C@H](C)C[C@H]2C(=O)N[C@@H](C)C(=O)N2C[C@H](C)C[C@H]2C(=O)O[C@H]1C` [ADEP-38] ({Heptenoyl(2E)}-[Phe(3,5-F2)][aThr]P[Pip(4S-Me)]A[Pro(4R-Me)]; ester 2-C), the “Hs RD1” value amounted to 0.76, the “Hs RD5” value stood at 0.89 and the “Hs RD25” value turned out to be 0.95.

In the case of `CCCC/C=C/C(=O)N[C@@H](Cc1ccc2ccccc2c1)C(=O)N[C@H]1COC(=O)[C@@H]2C[C@@H](C)CN2C(=O)[C@H](C)NC(=O)[C@@H]2CCCCN2C(=O)[C@@H]2CCCN2C1=O` [ADEP-43] ({Heptenoyl(2E)}-[2Nal]SP[Pip]A[Pro(4R-Me)]; ester 2-C), the “Hs RD5” value is 0.55 and the “Hs RD25” value was found to be 0.87.

Turning to `C[C@@H]1NC(=O)[C@H](C)N(C)C(=O)[C@@H]2CCCN2C(=O)[C@@H](NC(=O)[C@H](Cc2ccccc2)NC(=O)OC(C)(C)C)COC(=O)[C@@H]2CCCN2C1=O` [ADEP-34] (Boc-FSP[NMeA]AP; ester 2-C), the “Hs RD25” value is reported as 0.00.

As for `CCCC#CC(=O)N[C@@H](Cc1ccccc1)C(=O)N[C@H]1COC(=O)[C@@H]2CCCN2C(=O)[C@H](C)NC(=O)[C@H](C)N(C)C(=O)[C@@H]2CCCN2C1=O` [ADEP-23] (X10-FSP[NMeA]AP; ester 2-C), the “Hs RD25” value is recorded as 0.12.

On to `CCCC/C=C/C(=O)N[C@@H](Cc1cc(F)cc(F)c1)C(=O)N[C@H]1COC(=O)[C@@H]2C[C@@H](C)CN2C(=O)[C@H](C)NC(=O)[C@H](C)N(C)C(=O)[C@@H]2CCCN2C1=O` [ADEP-06] ({Heptenoyl(2E)}-[Phe(3,5-F2)]SP[NMeA]A[Pro(4R-Me)]; ester 2-C), for which the “Hs RD1” value came out at 0.64, the “Hs RD5” value was found to be 0.94 and the “Hs RD25” value is listed as 1.05.

Consider `CCCC/C=C/C(=O)N[C@@H](Cc1cc(F)cc(F)c1)C(=O)N[C@H]1COC(=O)[C@@H]2C[C@@H](C)CN2C(=O)[C@H](C)NC(=O)[C@@H]2c3ccccc3CCN2C(=O)[C@@H]2CCCN2C1=O` [ADEP-37] ({Heptenoyl(2E)}-[Phe(3,5-F2)]SP[Tiq1c(1S)]A[Pro(4R-Me)]; ester 2-C), for which the “Hs RD1” value turned out to be 0.68, the “Hs RD5” value is 0.86 and the “Hs RD25” value is 0.92.

`CCCCCC#CC(=O)N[C@@H](Cc1ccccc1)C(=O)N[C@H]1COC(=O)[C@@H]2CCCN2C(=O)[C@H](C)NC(=O)[C@H](C)N(C)C(=O)[C@@H]2CCCN2C1=O` [ADEP-27] (X5-FSP[NMeA]AP; ester 2-C): the “Hs RD25” value came out at 0.64.

Regarding `CCCC/C=C/C(=O)N[C@@H](Cc1cc(F)cc(F)c1)C(=O)N[C@@H]1C(=O)N2CCC[C@H]2C(=O)N2CCCC[C@H]2C(=O)N[C@@H](C)C(=O)N2C[C@H](C)C[C@H]2C(=O)O[C@H]1C` [ADEP-29] ({Heptenoyl(2E)}-[Phe(3,5-F2)][aThr]P[Pip]A[Pro(4R-Me)]; ester 2-C), the “Hs RD1” value is reported as 0.76, the “Hs RD5” value is on record as 0.87 and the “Hs RD25” value amounted to 0.92.

Regarding `CCCC/C=C/C(=O)N[C@@H](Cc1cc(F)cc(F)c1)C(=O)N[C@H]1CNC(=O)[C@@H]2C[C@@H](C)CN2C(=O)[C@H](C)NC(=O)[C@@H]2CCCCN2C(=O)[C@@H]2CCCN2C1=O` [ADEP-32] ({Heptenoyl(2E)}-[Phe(3,5-F2)][Dap]P[Pip]A[Pro(4R-Me)]; lactam 2-C), the “Hs RD1” value is given as 0.79, the “Hs RD5” value is recorded as 0.96 and the “Hs RD25” value is 1.03.

`CCCC/C=C/C(=O)N[C@@H](Cc1c(F)c(F)c(F)c(F)c1F)C(=O)N[C@H]1COC(=O)[C@@H]2C[C@@H](C)CN2C(=O)[C@H](C)NC(=O)[C@@H]2CCCCN2C(=O)[C@@H]2CCCN2C1=O` [ADEP-45]: the “Hs RD25” value was 0.29.

`C[C@@H]1C[C@H]2C(=O)OC[C@H](NC(=O)[C@H](Cc3ccccc3)NC(=O)OC(C)(C)C)C(=O)N3CCC[C@H]3C(=O)N(C)[C@@H](C)C(=O)N[C@@H](C)C(=O)N2C1` [ADEP-35] (Boc-FSP[NMeA]A[Pro(4R-Me)]; ester 2-C): the “Hs RD25” value came to 0.00.

With `CCCC/C=C/C(=O)N[C@@H](CC1CCCCC1)C(=O)N[C@H]1COC(=O)[C@@H]2C[C@@H](C)CN2C(=O)[C@H](C)NC(=O)[C@@H]2CCCCN2C(=O)[C@@H]2CCCN2C1=O` [ADEP-21] ({Heptenoyl(2E)}-[Cha]SP[Pip]A[Pro(4R-Me)]; ester 2-C), the “Hs RD5” value is reported as 0.70 and the “Hs RD25” value amounted to 1.00.

With `CCCC/C=C/C(=O)N[C@@H](Cc1ccccc1)C(=O)N[C@H]1COC(=O)[C@@H]2C[C@@H](C)CN2C(=O)[C@H](C)NC(=O)[C@@H]2CCCCN2C(=O)[C@@H]2CCCN2C1=O` [ADEP-10], the “Hs RD1” value is reported as 0.44, the “Hs RD5” value turned out to be 0.85 and the “Hs RD25” value amounted to 1.07.

`C/C=C/C=C/C=C/C(=O)N[C@@H](Cc1ccccc1)C(=O)N[C@H]1COC(=O)[C@@H]2C[C@@H](C)CN2C(=O)[C@H](C)NC(=O)[C@H](C)N(C)C(=O)[C@@H]2CCCN2C1=O` [ADEP-05] ({Octatrienoyl(2E,4E,6E)}-FSP[NMeA]A[Pro(4R-Me)]; ester 2-C): the “Hs RD5” value is 0.69 and the “Hs RD25” value is given as 0.98.

Turning to `C[C@@H]1C[C@H]2C(=O)O[C@@H](C)[C@H](NC(=O)[C@H](Cc3cc(F)cc(F)c3)NC(=O)/C=C/CC3CCCCC3)C(=O)N3CCC[C@H]3C(=O)N3CCCC[C@H]3C(=O)N[C@@H](C)C(=O)N2C1` [ADEP-17] (X2-[Phe(3,5-F2)][aThr]P[Pip]A[Pro(4R-Me)]; ester 2-C), the “Hs RD1” value was 0.86, the “Hs RD5” value is 0.91 and the “Hs RD25” value is recorded as 1.02.

Turning to `C/C=C/C=C/C=C/C(=O)N[C@@H](Cc1ccccc1)C(=O)N[C@H]1COC(=O)[C@@H]2CCCN2C(=O)[C@H](C)NC(=O)[C@H](C)N(C)C(=O)[C@@H]2CCCN2C1=O` [ADEP-08] ({Octatrienoyl(2E,4E,6E)}-FSP[NMeA]AP; ester 2-C), the “Hs RD5” value is 0.52 and the “Hs RD25” value is given as 0.97.

Regarding `CCCC/C=C/C(=O)N[C@@H](Cc1cc(F)cc(F)c1)C(=O)N[C@H]1COC(=O)[C@@H]2C[C@@H](C)CN2C(=O)[C@H](C)NC(=O)[C@@H]2C[C@@H](C)CCN2C(=O)[C@@H]2CCCN2C1=O` [ADEP-30] ({Heptenoyl(2E)}-[Phe(3,5-F2)]SP[Pip(4S-Me)]A[Pro(4R-Me)]; ester 2-C), the “Hs RD1” value is on record as 0.69, the “Hs RD5” value was found to be 0.93 and the “Hs RD25” value was found to be 0.98.
